Measurements published in the supplement of paper PMC10307832.

What was measured:
Assay in all cases: relative viability (nuclei count vs DMSO), 5 days (fraction); higher = more cells survive
NCI-H1975 = system: NCI-H1975
Outline: (§1)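 Dosing by pin tool came one day after lung cancer cell lines were seeded in 1536-well plates, using either one drug or a fixed anchor-drug dose plus five library-drug doses (not always all listed) in √10 steps. After 5 days, nuclei were counted on 4× images. Relative viability is treated-well nuclei count divided by vehicle-well nuclei count, and values are medians of duplicate plates.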

SW 900 = system: SW 900
Outline: as §1

LU99A = system: LU99A
Outline: as §1

HARA = system: HARA
Outline: as §1

HCC-827 = system: HCC-827
Outline: as §1

HCC-44 = system: HCC-44
Outline: as §1

NCI-H2342 = system: NCI-H2342
Outline: as §1

LXF-289 = system: LXF-289
Outline: as §1

NCI-H2023 = system: NCI-H2023
Outline: as §1

HCC-366 = system: HCC-366
Outline: as §1

LK-2 = system: LK-2
Outline: as §1

PC-14 = system: PC-14
Outline: as §1

With C=C1C(=O)O[C@@H](CCCCCCCC)[C@@H]1C(=O)O [C-75] + Nc1nc2[nH]cc(CCc3ccc(C(=O)N[C@@H](CCC(=O)O)C(=O)O)cc3)c2c(=O)[nH]1 [Pemetrexed] (partner 0.2 µM) the relative viability (NCI-H1975; first compound 0.08 µM) was 0.281, the relative viability (NCI-H1975; first compound 0.253 µM) was 0.287 and the relative viability (NCI-H1975; first compound 0.8 µM) was 0.262. It also gave a relative viability (NCI-H1975; first compound 2.53 µM) of 0.264, a relative viability (NCI-H1975; first compound 8 µM) of 0.292 and a relative viability (SW 900; first compound 0.08 µM) of 0.446. The relative viability (SW 900; first compound 0.253 µM) was 0.462, the relative viability (SW 900; first compound 0.8 µM) was 0.479 and the relative viability (SW 900; first compound 2.53 µM) was 0.301. For the same compound, the relative viability (SW 900; first compound 8 µM) was 0.454, the relative viability (LU99A; first compound 0.08 µM) was 0.191 and the relative viability (LU99A; first compound 0.253 µM) was 0.212. It also gave a relative viability (LU99A; first compound 0.8 µM) of 0.195, a relative viability (LU99A; first compound 2.53 µM) of 0.19 and a relative viability (LU99A; first compound 8 µM) of 0.21. The relative viability (HARA; first compound 0.08 µM) was 0.273, the relative viability (HARA; first compound 0.253 µM) was 0.254 and the relative viability (HARA; first compound 0.8 µM) was 0.233. It also gave a relative viability (HARA; first compound 2.53 µM) of 0.222, a relative viability (HARA; first compound 8 µM) of 0.299 and a relative viability (HCC-827; first compound 0.253 µM) of 0.271. For the same compound, the relative viability (HCC-827; first compound 0.8 µM) was 0.279, the relative viability (HCC-827; first compound 8 µM) was 0.287 and the relative viability (HCC-44; first compound 0.08 µM) was 0.58. For the same compound, the relative viability (HCC-44; first compound 0.253 µM) was 0.698, the relative viability (HCC-44; first compound 0.8 µM) was 0.683 and the relative viability (HCC-44; first compound 2.53 µM) was 0.572. For the same compound, the relative viability (HCC-44; first compound 8 µM) was 0.634, the relative viability (NCI-H2342; first compound 0.08 µM) was 0.815 and the relative viability (NCI-H2342; first compound 0.253 µM) was 0.771. For the same compound, the relative viability (NCI-H2342; first compound 0.8 µM) was 0.693, the relative viability (NCI-H2342; first compound 2.53 µM) was 0.62 and the relative viability (NCI-H2342; first compound 8 µM) was 0.766. For the same compound, the relative viability (LXF-289; first compound 0.08 µM) was 0.834, the relative viability (LXF-289; first compound 0.253 µM) was 0.906 and the relative viability (LXF-289; first compound 0.8 µM) was 0.858. For the same compound, the relative viability (LXF-289; first compound 2.53 µM) was 0.886, the relative viability (LXF-289; first compound 8 µM) was 0.904 and the relative viability (NCI-H2023; first compound 0.08 µM) was 0.246. For the same compound, the relative viability (NCI-H2023; first compound 0.253 µM) was 0.265, the relative viability (NCI-H2023; first compound 0.8 µM) was 0.242 and the relative viability (NCI-H2023; first compound 2.53 µM) was 0.171. It also gave a relative viability (NCI-H2023; first compound 8 µM) of 0.21, a relative viability (HCC-366; first compound 0.08 µM) of 0.156 and a relative viability (HCC-366; first compound 0.253 µM) of 0.183. The relative viability (HCC-366; first compound 0.8 µM) was 0.149, the relative viability (HCC-366; first compound 2.53 µM) was 0.22 and the relative viability (HCC-366; first compound 8 µM) was 0.188. For the same compound, the relative viability (LK-2; first compound 0.08 µM) was 0.214, the relative viability (LK-2; first compound 0.253 µM) was 0.301 and the relative viability (LK-2; first compound 0.8 µM) was 0.215. It also gave a relative viability (LK-2; first compound 2.53 µM) of 0.2, a relative viability (LK-2; first compound 8 µM) of 0.246 and a relative viability (PC-14; first compound 0.08 µM) of 0.141. The relative viability (PC-14; first compound 0.253 µM) was 0.146 and the relative viability (PC-14; first compound 0.8 µM) was 0.137.
